According to PMC6865014, “Discovery of Novel µ-Opioid Receptor Inverse Agonist from a Combinatorial Library of Tetrapeptides through Structure-Based Virtual Screening” (Molecules, 2019):

Tests used:
[1] = tested on: MOR (µ-opioid receptor), rat brain membranes; assay: Radioligand competition binding, [^3H]DAMGO; parameters: species or system rat (male Wistar); conditions: for activity against MOR (in words): stated when comparing binding modes, up to 10 µM
Experimental: (§1) Rats were decapitated and their brains were quickly removed. The brains were used for membrane preparation according to Benyhe et al. partly used for competition binding experiments and partly were further prepared for the [^35S]GTPγS binding experiments based on Zádor et al.. Briefly, the brains were homogenized, centrifuged in ice-cold 50 mM Tris-HCl (pH 7.4) buffer and incubated at 37 °C for 30 min in a shaking water-bath. After incubation, the centrifugation was repeated as described before and the final pellet was suspended in 50 mM Tris-HCl pH 7.4 buffer containing 0.32 M sucrose and stored at −80 °C. For the [^35S]GTPγS binding experiments the final pellet of rat brain membrane homogenate was suspended in ice-cold TEM (Tris-HCl, EGTA, MgCl2) and stored at −80 °C for further use.
Total and non-specific binding was determined in the absence of ligands and the presence of 10 µM unlabeled naloxone, respectively. Following incubation, the bound and unbound radioligands were separated by rapid vacuum filtration through Whatman GF/C glass fibers and washed three times with 5 mL ice-cold 50 mM Tris-HCl (pH: 7.4). The radioactivity of the filters was detected in UltimaGold^TM MV aqueous scintillation cocktail with Packard Tricarb 2300TR liquid scintillation counter. The competition binding assays were performed in duplicate and repeated at least three times.
(§2) The specific binding of all radiolabeled compounds was calculated by the subtraction of non-specific binding from total binding and was given in percentage. The data were normalized to total specific binding, which was settled 100%, which in the case of [^35S]GTPγS also represents the basal activity of the G-protein. Experimental data were presented as mean ± S.E.M. Statistical analyses were performed with GraphPad Prism 5.0 applying one-way ANOVA with Tukey’s multiple comparison test. Significance was accepted at the p < 0.05 level.

[2] = tested on: Gαi/o protein, rat brain membrane homogenates; assay: Functional [^35S]GTPγS binding (G-protein activity); assay type: biochemical, rat (male Wistar); conditions: 10 µM, basal activity = 100%, 30 °C, 60 min, triplicates, at least three times; for effect on G-protein basal activity / [^35S]GTPγS specific binding (in words): rat brain membranes, pH 7.4
Experimental: as §1
In [^35S]GTPγS binding experiments was measured the GDP→GTP exchange of the Gαi/o protein in the presence of a given ligand to measure ligand potency and the maximal efficacy of receptors G-protein. The nucleotide exchange is monitored by a radioactive, non-hydrolysable GTP analog, [^35S]GTPγS. The functional [^35S]GTPγS binding experiments were performed as previously described, with some modifications. The test compounds in 10 µM were incubated together with rat brain membrane homogenates containing ~10 μg/mL protein at 30 °C for 60 min in Tris-EGTA buffer (pH 7.4) composed of 50 mM Tris-HCl, 1 mM EGTA, 3 mM MgCl2, 100 mM NaCl, containing 20 MBq/0.05 cm^3 [^35S]GTPγS (0.05 nM). […] Total binding was measured in the absence of test compounds, while non-specific binding was determined in the presence of 10 μM unlabeled GTPγS. The bound and unbound [^35S]GTPγS were separated as described in the competition binding assays section through Whatmann GF/B glass fibers. The radioactivity of the filters was also detected as described above. [^35S]GTPγS binding experiments were performed in triplicates and repeated at least three times.
as §2

[3] = target: δ-opioid receptor (rat (endogenous in Wistar rat brain)) (UniProt P33533); assay: radioligand binding; competition against ~1 nM [^3H]IleDelt II on rat brain membranes (0.3-0.5 mg/mL protein), test ligands at 3 and 10 µM, 35 °C, 45 min; non-specific binding with 10 µM naloxone; filtration, 50 mM Tris-HCl pH 7.4 wash
[4] = tested on: δ-opioid receptors; conditions: ref [11]; cited from earlier work
Source text: These are potent μ-opioid agonists that exert addiction liability and numerous side effects, such as euphoria, addiction, respiratory depression, and gastrointestinal adverse reactions; therefore; circumventing these drawbacks is of extensive importance. A large amount of literature documented novel approaches to disconnecting the analgesic efficacy of μ-opioid agonists from morphine-like side effects, for example biasing the GPCRs over β-arrestin2 recruitment (TRV130, PZM21, HS665) or designing positive allosteric modulators of the MOR (BMS-986122), MOR inverse agonists/KOR antagonists, ...

[5] = tested on: DOR (δ-opioid receptor), rat brain membranes; assay: Radioligand competition binding, [^3H]IleDelt II; parameters: species or system rat (male Wistar); conditions: 3 and 10 µM
Experimental: as §1
Total and non-specific binding was determined in the absence of ligands and the presence of 10 µM unlabeled naloxone, respectively. […] The radioactivity of the filters was detected in UltimaGold^TM MV aqueous scintillation cocktail with Packard Tricarb 2300TR liquid scintillation counter. […]
(§3) The specific binding of all radiolabeled compounds was calculated by the subtraction of non-specific binding from total binding and was given in percentage. […]

[6] = tested on: MOR, rat brain membrane homogenates; assay: MOR specificity of the peptide 1 effect: [^35S]GTPγS binding with co-incubated DAMGO or cyprodime; assay type: biochemical, rat (male Wistar); conditions: rat brain membranes
Experimental: as §1, with “For the [^35S]GTPγS binding experiments the final pellet of rat brain membrane homogenate was suspended in ice-cold TEM (Tris-HCl, EGTA, MgCl2) and stored at −80 °C for further use.” left out
In [^35S]GTPγS binding experiments was measured the GDP→GTP exchange of the Gαi/o protein in the presence of a given ligand to measure ligand potency and the maximal efficacy of receptors G-protein. The nucleotide exchange is monitored by a radioactive, non-hydrolysable GTP analog, [^35S]GTPγS. […] Total binding was measured in the absence of test compounds, while non-specific binding was determined in the presence of 10 μM unlabeled GTPγS. […] The radioactivity of the filters was also detected as described above. […]
as §3

[7] = target: µ-opioid receptor (rat (endogenous in Wistar rat brain)) (UniProt P33535)

H-Tyr-Trp-Tyr-Trp-OH [peptide 3, TFA.H-Tyr-Trp-Tyr-Trp-OH]
activity against MOR (in words) [1]: inactive against MOR | effect on G-protein basal activity / [^35S]GTPγS specific binding (in words) [2]: did not alter significantly the basal activity

Tyr-D-Ala-Gly-(NMe)Phe-Gly-ol [DAMGO, reference compound]
specific binding of [^3H]DAMGO in presence of unlabeled homologue ([1]; control, unlabeled DAMGO 3 and 10 µM, rat brain membranes, 35 °C, 45 min, 0% = non-specific binding level): 0% | effect on G-protein basal activity / [^35S]GTPγS specific binding (in words) [2]: significantly increased the specific binding of the [^35S]GTPγS compared to the basal level

H-Tyr-Trp-Trp-Trp-OH [peptide 2, TFA.H-Tyr-Trp-Trp-Trp-OH]
activity against MOR (in words) [1]: inactive against MOR | effect on G-protein basal activity / [^35S]GTPγS specific binding (in words) [2]: did not alter significantly the basal activity

Ile^5,6-deltorphin II (peptide)
specific binding of the radiolabeled homolog left (percent of total) [3]: 0%

rubiscolin-6
G protein signaling at δ-opioid receptors (in words) [4]: activate G protein signaling pathways at the δ-opioid receptors | β-arrestin recruitment (in words) [4]: minimal β-arrestin recruitment

H-Tyr-Lys-Arg-Cys-OH [peptide 1, TFA.H-Tyr-Lys-Arg-Cys-OH]
inhibition of [^3H]DAMGO specific binding (in words) ([1]; 3 and 10 µM, rat brain membranes): displayed inhibition of [^3H]DAMGO specific binding | selectivity MOR over DOR (in words) ([1]; [^3H]DAMGO vs [^3H]IleDelt II binding, rat brain membranes): selectivity for MOR over DOR | inhibition of [^3H]IleDelt II specific binding (in words) [5]: not against [^3H]IleDelt II | reduction of G-protein basal activity ([^35S]GTPγS specific binding) ([2]; rat brain membranes ~10 μg/mL, pH 7.4, 0.05 nM [^35S]GTPγS): ~ 20% | effect on G-protein basal activity / [^35S]GTPγS specific binding (in words) [2]: appreciable inverse agonist effect | MOR functional activity (in words) ([6]; 10 µM): appreciable inverse agonist effect at MOR | inverse agonist effect in presence of DAMGO ([6]; peptide 1 10 µM + DAMGO 10 µM): the inverse agonist effect was reversed back to basal activity level

B1: peptide 1 (Tyr-Lys-Arg-Cys) (peptide)
peptide: YKRC
[^35S]GTPγS specific binding (G-protein basal activity) in rat brain membranes, 10 µM peptide 1 [7]: 20%
